Measurements: the CombiSolv-Exp solvation set (Vermeire and Green 2021)

Assay: solvent given as SMILES

SMILES: CC(C)C
- solvation free energy, 298 K (in C1CCC2CCCCC2C1): -2 kcal/mol
- solvation free energy, 298 K (in CC1COC(=O)O1): -0.87 kcal/mol
- solvation free energy, 298 K (in CC(C)(C)O): -1.86 kcal/mol
- solvation free energy, 298 K (in CC(C)=O): -1.87 kcal/mol
- solvation free energy, 298 K (in CC(C)CCO): -1.8 kcal/mol
- solvation free energy, 298 K (in CC(C)CO): -1.8 kcal/mol
- solvation free energy, 298 K (in CC(C)O): -1.9 kcal/mol
- solvation free energy, 298 K (in CCC(C)(C)O): -1.92 kcal/mol
- solvation free energy, 298 K (in CCC(C)CO): -1.8 kcal/mol
- solvation free energy, 298 K (in CCC(C)O): -1.79 kcal/mol
- solvation free energy, 298 K (in CCC(O)CC): -1.83 kcal/mol
- solvation free energy, 298 K (in CCCC(C)O): -1.8 kcal/mol
- solvation free energy, 298 K (in CCCCC): -2.38 kcal/mol
- solvation free energy, 298 K (in CCCCCC): -2.33 kcal/mol
- solvation free energy, 298 K (in CCCCCCC): -2.31 kcal/mol
- solvation free energy, 298 K (in CCCCCCCC): -2.3 kcal/mol
- solvation free energy, 298 K (in CCCCCCCCC): -2.2 kcal/mol
- solvation free energy, 298 K (in CCCCCCCCCC): -2.23 kcal/mol
- solvation free energy, 298 K (in CCCCCCCCCCCCCCCC): -1.91 kcal/mol
- solvation free energy, 298 K (in CCCCCCCO): -1.68 kcal/mol
- solvation free energy, 298 K (in CCCCCO): -1.79 kcal/mol
- solvation free energy, 298 K (in CCCCO): -1.91 kcal/mol
- solvation free energy, 298 K (in CCCO): -1.77 kcal/mol
- solvation free energy, 298 K (in CCO): -1.64 kcal/mol
- solvation free energy, 298 K (in CCOC(C)=O): -2.16 kcal/mol
- solvation free energy, 298 K (in CCOCC): -2.33 kcal/mol
- solvation free energy, 298 K (in CN1CCCC1=O): -1.2 kcal/mol
- solvation free energy, 298 K (in CN(C)C=O): -1.32 kcal/mol
- solvation free energy, 298 K (in CN(C)P(=O)(N(C)C)N(C)C): -1.53 kcal/mol
- solvation free energy, 298 K (in CO): -1.46 kcal/mol
- solvation free energy, 298 K (in COCCOCCOCCOC): -1.18 kcal/mol
- solvation free energy, 298 K (in CS(C)=O): -0.53 kcal/mol
- solvation free energy, 298 K (in Cc1ccc(C)cc1): -2.06 kcal/mol
- solvation free energy, 298 K (in Cc1cccc(C)c1): -2.07 kcal/mol
- solvation free energy, 298 K (in Cc1ccccc1C): -2.04 kcal/mol
- solvation free energy, 298 K (in ClC(Cl)(Cl)Cl): -2.37 kcal/mol
- solvation free energy, 298 K (in Clc1ccccc1): -2.25 kcal/mol
- solvation free energy, 298 K (in Nc1ccccc1): -1.07 kcal/mol
- solvation free energy, 298 K (in O): 2.32 kcal/mol
- solvation free energy, 298 K (in O=CN1CCOCC1): -0.64 kcal/mol
- solvation free energy, 298 K (in OC1CCCCC1): -1.55 kcal/mol
- solvation free energy, 298 K (in OCCCOCCCO): -0.87 kcal/mol
- solvation free energy, 298 K (in OCCO): -0.19 kcal/mol
- solvation free energy, 298 K (in OCc1ccccc1): -1.16 kcal/mol
- solvation free energy, 298 K (in c1ccccc1): -2.08 kcal/mol

SMILES: CCCCCCCCCCOC(=O)c1ccccc1C(=O)OCCCCCCCCCC
- solvation free energy, 298 K (in O): -6.22 kcal/mol

SMILES: CS(C)=O
- solvation free energy, 298 K (in CCCCCCCCCCCCCCCC): -4.14 kcal/mol
- solvation free energy, 298 K (in CCOC(C)=O): -6.66 kcal/mol

SMILES: CCCCC(=O)OC
- solvation free energy, 298 K (in CCCCCC): -4.93 kcal/mol
- solvation free energy, 298 K (in CCCCCCC): -4.91 kcal/mol
- solvation free energy, 298 K (in CCCCCCCC): -4.85 kcal/mol
- solvation free energy, 298 K (in CCCCCCCCCC): -4.75 kcal/mol
- solvation free energy, 298 K (in CO): -5.33 kcal/mol
- solvation free energy, 298 K (in O): -2.56 kcal/mol

SMILES: CCCC1CCCCC1
- solvation free energy, 298 K (in CN1CCCC1=O): -4.57 kcal/mol
- solvation free energy, 298 K (in NC=O): -1.91 kcal/mol
- solvation free energy, 298 K (in O): 1.8 kcal/mol

SMILES: NC=O
- solvation free energy, 298 K (in CC(C)c1ccccc1): -4.1 kcal/mol
- solvation free energy, 298 K (in CCc1ccccc1): -4.58 kcal/mol
- solvation free energy, 298 K (in O): -10.2 kcal/mol

SMILES: CC(C(=O)O)c1ccc(N2CC=CC2)c(Cl)c1 (stereo not drawn)
- solvation free energy, 298 K (in O): -11.3 kcal/mol

SMILES: O=Cc1ccc(C(=O)O)cc1
- solvation free energy, 298 K (in CN1CCCC1=O): -12.8 kcal/mol
- solvation free energy, 298 K (in O): -8.94 kcal/mol

SMILES: Cc1ccc(CO)cc1
- solvation free energy, 298 K (in O): -7.12 kcal/mol

SMILES: Cc1ccc(N(O)C(=O)c2ccccc2C)cc1
- solvation free energy, 298 K (in O): -11.5 kcal/mol

SMILES: OCCCl
- solvation free energy, 298 K (in Brc1ccccc1): -4.8 kcal/mol
- solvation free energy, 298 K (in CCCCCCCCCCO): -5.73 kcal/mol
- solvation free energy, 298 K (in CCCCCCCCO): -5.87 kcal/mol
- solvation free energy, 298 K (in Cc1ccc(C)cc1): -4.77 kcal/mol
- solvation free energy, 298 K (in Cc1cccc(C)c1): -4.69 kcal/mol
- solvation free energy, 298 K (in Cc1ccccc1C): -4.74 kcal/mol
- solvation free energy, 298 K (in Clc1ccccc1): -4.62 kcal/mol
- solvation free energy, 298 K (in O): -6.28 kcal/mol

SMILES: CC(Cl)Cl
- solvation free energy, 298 K (in CCCCCCCCO): -3.29 kcal/mol
- solvation free energy, 298 K (in ClC(Cl)(Cl)Cl): -3.78 kcal/mol
- solvation free energy, 298 K (in ClC(Cl)Cl): -4.11 kcal/mol
- solvation free energy, 298 K (in ClCCCl): -4.02 kcal/mol
- solvation free energy, 298 K (in O): -0.84 kcal/mol

SMILES: CCOC=O
- solvation free energy, 298 K (in C=CCCCCCCCCCCCCCC): -2.62 kcal/mol
- solvation free energy, 298 K (in CC(C)O): -3.15 kcal/mol
- solvation free energy, 298 K (in CCC(C)=O): -3.71 kcal/mol
- solvation free energy, 298 K (in CCCCCCCCCCCCCCCC): -2.55 kcal/mol
- solvation free energy, 298 K (in CCCCCCCCO): -2.98 kcal/mol
- solvation free energy, 298 K (in ClC(Cl)(Cl)Cl): -3.33 kcal/mol
- solvation free energy, 298 K (in ClC(Cl)Cl): -4.37 kcal/mol
- solvation free energy, 298 K (in O): -2.64 kcal/mol
- solvation free energy, 298 K (in [2H]O[2H]): -2.64 kcal/mol

SMILES: CC1CCC(C)O1 (stereo not drawn)
- solvation free energy, 298 K (in O): -2.92 kcal/mol

SMILES: CC1=CC(=O)CC(C)(C)C1
- solvation free energy, 298 K (in O): -5.18 kcal/mol

SMILES: Ic1ccccc1
- solvation free energy, 298 K (in C1CCOC1): -7.38 kcal/mol
- solvation free energy, 298 K (in C1COCCO1): -7.22 kcal/mol
- solvation free energy, 298 K (in CCCCCCC): -6.27 kcal/mol
- solvation free energy, 298 K (in CCCCCCCCCCCCCCCC): -6.11 kcal/mol
- solvation free energy, 298 K (in CN(C)C=O): -7.09 kcal/mol
- solvation free energy, 298 K (in ClC(Cl)(Cl)Cl): -6.81 kcal/mol
- solvation free energy, 298 K (in N#Cc1ccccc1): -6.98 kcal/mol
- solvation free energy, 298 K (in O): -1.75 kcal/mol
- solvation free energy, 298 K (in OCCO): -5.28 kcal/mol

SMILES: O=CN1CCOCC1
- solvation free energy, 298 K (in O): -9.41 kcal/mol

SMILES: COC(=O)c1ccc(Cl)c([N+](=O)[O-])c1
- solvation free energy, 298 K (in CN(C)C=O): -11.6 kcal/mol
- solvation free energy, 298 K (in O): -6.89 kcal/mol

SMILES: CCC(=O)CC(C)=O
- solvation free energy, 298 K (in O): -4.79 kcal/mol

SMILES: O=[N+]([O-])c1ccc(O)cc1
- solvation free energy, 298 K (in CCCCCC): -7.93 kcal/mol
- solvation free energy, 298 K (in CCCCCCC): -7.93 kcal/mol
- solvation free energy, 298 K (in CCCCCCCC): -7.93 kcal/mol
- solvation free energy, 298 K (in CCCCCCCCCC): -7.93 kcal/mol
- solvation free energy, 298 K (in CCCCOCCCC): -11.8 kcal/mol
- solvation free energy, 298 K (in O): -10.7 kcal/mol
